From PubChem BioAssay (NCI)
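Protocol summary: plate cells (96-well), add compound at 5 concentrations, incubate 48 h, interpolate endpoints linearly. TGI: total growth inhibition.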

Assays:
Assay in all cases: growth of human tumour cells (NCI), 48 h
[1] = tested on: LXFL 529 NSCLC
[2] = tested on: KM20L2 colon
[3] = tested on: SNB-78 CNS
[4] = tested on: DMS 273 small cell lung
[5] = tested on: HOP-18 NSCLC
[6] = tested on: M19-MEL melanoma
[7] = tested on: DLD-1 colon
[8] = tested on: DMS 114 small cell lung
[9] = tested on: RXF-631 renal
[10] = tested on: XF 498 CNS

CCOc1cn(C2OC(CO)C(O)C2O)c(=O)[nH]c1=O (stereo unspecified)
TGI [1]: > 100 µM | TGI [2]: > 100 µM | TGI [3]: > 100 µM | TGI [4]: > 100 µM | TGI [5]: > 100 µM | TGI [6]: > 100 µM | TGI [7]: > 100 µM | TGI [8]: > 100 µM

O=C1Cc2nc(CO)c(CO)c(CO)c2CO1
TGI [1]: > 100 µM | TGI [2]: > 100 µM | TGI [3]: > 100 µM | TGI [4]: > 100 µM | TGI [5]: > 100 µM | TGI [6]: > 100 µM | TGI [7]: > 100 µM | TGI [8]: > 100 µM

CCOC(=O)C1=C(C)NC2=C(C(=O)N(c3ccccc3)C2c2ccccc2)C1c1ccccc1 (stereo unspecified)
TGI [1]: 30.3 µM | TGI [3]: 45.3 µM | TGI [5]: 37.7 µM | TGI [6]: 32.3 µM | TGI [7]: 34.5 µM | TGI [8]: 32.4 µM | TGI [9]: 32.9 µM | TGI [10]: 37.5 µM

CSc1ccc2c(cc1=O)[C@@H](NC(=O)c1ccc(Cl)cc1)CCc1cc(O)c(O)c(O)c1-2
TGI [1]: > 100 µM | TGI [2]: > 100 µM | TGI [3]: > 100 µM | TGI [4]: > 100 µM | TGI [5]: > 100 µM | TGI [6]: > 100 µM | TGI [7]: 72.7 µM | TGI [8]: > 100 µM

COC1(C)C(=O)N2C1N(C(=O)OC(C)(C)C)CC2(C)C (stereo unspecified)
TGI [1]: > 100 µM | TGI [2]: > 100 µM | TGI [3]: > 100 µM | TGI [4]: > 100 µM | TGI [5]: > 100 µM | TGI [6]: > 100 µM | TGI [7]: > 100 µM | TGI [8]: > 100 µM

COc1ccc(C2ON(c3ccccc3)CC=C2C)cc1 (stereo unspecified)
TGI [1]: > 100 µM | TGI [2]: > 100 µM | TGI [3]: > 100 µM | TGI [4]: > 100 µM | TGI [6]: > 100 µM | TGI [7]: > 100 µM | TGI [9]: > 100 µM | TGI [10]: > 100 µM

Cc1ccc(S(=O)(=O)N2CCN(C=S)CC2)cc1
TGI [1]: > 100 µM | TGI [2]: > 100 µM | TGI [3]: > 100 µM | TGI [4]: > 100 µM | TGI [5]: > 100 µM | TGI [6]: > 100 µM | TGI [7]: > 100 µM | TGI [8]: > 100 µM | TGI [9]: > 100 µM

COc1ccc(N2C(=O)C3c4[nH]c5ccccc5c4C4CC(C)(C)CC(C)(C)C4C3C2=O)cc1 (stereo unspecified)
TGI [1]: 27.7 µM | TGI [2]: > 100 µM | TGI [3]: 55.3 µM | TGI [4]: 23.8 µM | TGI [5]: 36.5 µM | TGI [6]: 33.7 µM | TGI [7]: > 100 µM | TGI [8]: 97.7 µM | TGI [10]: 36.8 µM

CC(=O)O[C@H]1CCN2C(=O)C=CC(OCc3ccccc3)C12 (stereo partly specified)
TGI [1]: > 100 µM | TGI [2]: > 100 µM | TGI [3]: > 100 µM | TGI [4]: > 100 µM | TGI [5]: > 100 µM | TGI [6]: > 100 µM | TGI [7]: > 100 µM | TGI [8]: > 100 µM | TGI [10]: > 100 µM

COc1cc(CC2c3cc(OC)c(OC)cc3CCN2C)ccc1O (stereo unspecified)
TGI [1]: > 100 µM | TGI [2]: > 100 µM | TGI [3]: > 100 µM | TGI [5]: > 100 µM | TGI [7]: > 100 µM | TGI [10]: > 100 µM

CC(=O)Nc1ccc(-c2nnc(SCC(=O)Nc3cccc(Cl)c3)o2)cc1
TGI [1]: 24.8 µM | TGI [2]: 31.4 µM | TGI [3]: > 100 µM | TGI [4]: 62.4 µM | TGI [5]: 25.5 µM | TGI [6]: > 100 µM | TGI [7]: 28.3 µM | TGI [8]: 6.07 µM

NS(=O)(=O)c1ccc(Nc2c3ccccc3nc3c(C(=O)N4CCN(CCO)CC4)cccc23)cc1
TGI [1]: > 100 µM | TGI [2]: > 100 µM | TGI [3]: > 100 µM | TGI [4]: > 100 µM | TGI [5]: > 100 µM | TGI [6]: > 100 µM | TGI [8]: > 100 µM | TGI [10]: > 100 µM

CC[C@]12C=CCN3CCC4(c5cc([C@@]6(C(=O)OC)CC7CN(CCc8c6[nH]c6ccccc86)C[C@@H]6CCCC[C@H]76)c(OC)cc5N(C)C4[C@](O)(C(=O)OC)C1OC(C)=O)[C@@H]32 (stereo partly specified)
TGI [1]: 1.71 µM | TGI [3]: 19.9 µM | TGI [6]: 16.3 µM | TGI [7]: 13.8 µM | TGI [8]: < 0.01 µM | TGI [10]: 3.79 µM

CC(=O)OCCOCNC(=S)N/N=C/c1cc([N+](=O)[O-])ccc1O
TGI [1]: > 100 µM | TGI [2]: > 100 µM | TGI [3]: > 100 µM | TGI [4]: > 100 µM | TGI [5]: > 100 µM | TGI [6]: > 100 µM | TGI [7]: > 100 µM | TGI [8]: > 100 µM | TGI [9]: > 100 µM | TGI [10]: > 100 µM

COc1cc2oc(-c3ccccc3)cc(=O)c2c(O)c1C
TGI [1]: > 100 µM | TGI [2]: > 100 µM | TGI [3]: > 100 µM | TGI [4]: > 100 µM | TGI [6]: > 100 µM | TGI [7]: > 100 µM | TGI [8]: > 100 µM

COc1ccc2c(=O)cc(-c3ccc(OC)c(OC)c3OC)oc2c1
TGI [1]: > 100 µM | TGI [2]: 77.3 µM | TGI [6]: > 100 µM | TGI [7]: > 100 µM | TGI [8]: > 100 µM | TGI [9]: > 100 µM | TGI [10]: > 100 µM

O=C(/C=C/c1ccccc1O)c1ccc([N+](=O)[O-])cc1
TGI [1]: 26.7 µM | TGI [2]: 39.7 µM | TGI [3]: 89.1 µM | TGI [4]: 52.6 µM | TGI [5]: > 100 µM | TGI [6]: 36.5 µM | TGI [7]: 26.3 µM | TGI [8]: 24.7 µM | TGI [9]: 89.9 µM | TGI [10]: 32.7 µM

CN/C=C(\C(=O)c1ccc(OC)c(OC)c1)c1ccc(OC)cc1
TGI [1]: 30.2 µM | TGI [4]: 21.7 µM | TGI [5]: 20.9 µM | TGI [6]: 34.3 µM | TGI [7]: 31.7 µM | TGI [8]: 46.8 µM | TGI [9]: 32.5 µM | TGI [10]: 33.2 µM

COC(=O)[C@@]1(C)C(=O)CC[C@@H]1C=O
TGI [1]: > 100 µM | TGI [2]: > 100 µM | TGI [3]: > 100 µM | TGI [6]: > 100 µM | TGI [7]: > 100 µM | TGI [8]: > 100 µM | TGI [10]: > 100 µM

COc1cccc(/C=C/C(=O)c2sc(C(N)=S)nc2C)c1O
TGI [1]: > 50.1 µM | TGI [2]: > 100 µM | TGI [3]: > 100 µM | TGI [4]: > 91.3 µM | TGI [5]: > 100 µM | TGI [6]: > 100 µM | TGI [7]: > 68.5 µM | TGI [8]: > 100 µM | TGI [9]: > 100 µM | TGI [10]: > 100 µM

COc1ccc(C(=O)c2c3cc(OC)c(OC)c(OC)c3cc[n+]2C)cc1
TGI [1]: > 100 µM | TGI [2]: > 100 µM | TGI [3]: > 100 µM | TGI [5]: 80.6 µM | TGI [6]: > 100 µM | TGI [7]: > 100 µM | TGI [8]: 75.7 µM | TGI [9]: > 100 µM | TGI [10]: 33.3 µM
